The values that follow are results of earlier work, collected in patent US8715728B2, “Extended release pellet formulation containing pramipexole or a pharmaceutically acceptable salt thereof” (Boehringer Ingelheim International GmbH, priority 2004, dated 2014).

Structures can show the parent of a compound that is named as a salt.

Test in series [1]: not given
The source holds these as a separate data set.

For series [2] the following is noted: in vivo.

`CCCN[C@H]1CCc2nc(N)sc2C1` [Pramipexole dihydrochloride monohydrate, pramipexole dihydrochloride monohydrate]: the “solubility in buffer media” value (between pH 2 and pH 7.4) is reported as “above 10 mg/ml”. Further, for the setting “water”, the Water solubility result is given as “more than 20 mg/mL”.
As for `CCCN[C@H]1CCc2nc(N)sc2C1` [Pramipexole, (S)-2-amino-4,5,6,7-tetrahydro-6-(propylamino)benzothiazole], in series [1] (in solution, light), the stability in solution entry is on record as “light sensitive”. Further, the “stability in the solid state” value in series [1] (solid state) was “very stable”. The kinetics entry in series [2] is “linear kinetics”.
